Source: ChEMBL document CHEMBL1201862, “PubChem BioAssay data set” (2004)
Each block holds one compound with its values, some of them ahead of it. Calls of active or inactive are those of the source.

What was measured:
[1] = NIH-3T3 fibroblast cytotoxicity, dose response, cytotoxicity control, cell-based, fluorescence, Alamar Blue, secondary assay (AID 2327); type: functional;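 further: NIH-3T3 mouse fibroblasts cultured with fluconazole at 8 µg/mL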
HEK293 [2] = assay: NOD1 signaling inhibitors, primary screen, cell-based, luminescence, uHTS (AID 1578); type: functional; settings: Homo sapiens
HEK293 [3] = assay: cells; type: functional, cell-based; settings: Homo sapiens
[4] = C. albicans growth with fluconazole, confirmation, fluorescence, retest (AID 2467); type: functional, cell-based
HEK293 [5] = assay: cells; type: functional, cell-based; settings: Homo sapiens; remark: listed apart in the source
[6] = biological target: Nucleotide-binding oligomerization domain-containing protein 2 (Homo sapiens, UniProt Q9HC29); assay: NOD2 signaling inhibitors, cell-based, luminescence, uHTS, HEK293 (AID 1566); type: functional
HEK293 [7] = assay: NOD2 signaling inhibitors in MDP-stimulated cells, cell-based, uHTS, luminescence (AID 2001); type: functional; settings: Homo sapiens
HEK293 [8] = assay: cells; type: functional, cell-based; settings: Homo sapiens; remark: listed apart in the source
[9] = biological target: T1, Microphthalmia-associated transcription factor (Homo sapiens, UniProt O75030); assay: TRPM1 promoter luciferase signal decrease, dose response, MITF inhibitor project, cell-based, SK-MEL-5, cherry-picked, set 3 (AID 493073); type: functional
T1 sequence (O75030 whole entry): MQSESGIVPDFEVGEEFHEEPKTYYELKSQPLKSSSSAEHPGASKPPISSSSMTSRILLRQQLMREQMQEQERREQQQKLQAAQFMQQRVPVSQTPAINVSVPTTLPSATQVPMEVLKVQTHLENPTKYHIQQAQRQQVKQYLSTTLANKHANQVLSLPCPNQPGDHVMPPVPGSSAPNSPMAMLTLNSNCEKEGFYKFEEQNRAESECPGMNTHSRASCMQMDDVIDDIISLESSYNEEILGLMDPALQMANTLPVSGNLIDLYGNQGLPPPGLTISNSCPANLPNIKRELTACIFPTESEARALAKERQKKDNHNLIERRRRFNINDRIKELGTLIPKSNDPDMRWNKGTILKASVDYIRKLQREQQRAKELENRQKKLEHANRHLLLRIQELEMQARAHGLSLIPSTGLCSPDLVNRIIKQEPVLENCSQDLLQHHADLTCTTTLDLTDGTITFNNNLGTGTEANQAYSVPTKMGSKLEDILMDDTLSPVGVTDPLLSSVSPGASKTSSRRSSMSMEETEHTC

Prothrombin = Prothrombin (Homo sapiens, UniProt P00734); assay: Thrombin 1536 HTS Dose Response Confirmation. [Related pubchem assays: 1046 (Thrombin 1536 HTS; hits were confirmed in this assay)]; type: functional
[10] = biological target: DNA dC->dU-editing enzyme APOBEC-3G (Homo sapiens, UniProt Q9HC16); assay: Dose Response confirmation of small molecule APOBEC3G DNA Deaminase Inhibitors via a fluorescence-based single-stranded DNA deaminase assay. [Related pubchem assays (depositor defined):AID493012, AID493028]; type: functional
[11] = biological target: T2, Carboxy-terminal domain RNA polymerase II polypeptide A small phosphatase 1 (Homo sapiens, UniProt Q9GZU7); assay: inhibitors of CTDSP1, concentration-response testing, biochemical assay, absorbance-based, actives from ultra-high-throughput screening (AID 540297); type: functional
T2 sequence (Q9GZU7 whole entry): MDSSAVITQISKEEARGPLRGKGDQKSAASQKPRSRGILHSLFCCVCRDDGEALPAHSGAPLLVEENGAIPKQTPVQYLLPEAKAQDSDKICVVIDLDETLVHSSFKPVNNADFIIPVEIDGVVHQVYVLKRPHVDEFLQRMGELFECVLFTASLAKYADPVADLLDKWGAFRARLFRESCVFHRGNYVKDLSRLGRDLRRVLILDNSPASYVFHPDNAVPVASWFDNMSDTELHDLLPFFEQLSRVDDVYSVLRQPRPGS

[12] = cytotoxicity in HEK-293T cells, dose response, cytotoxicity control for TCR NF-kB inhibitor project, luminescence, T-cell screen hits (AID 489026); type: functional, cell-based;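 further: cells exposed to compound about 14 hours before the viability readout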
cells [13] = type: functional, cell-based
cells [14] = type: functional, cell-based; remark: listed apart in the source
Cytochrome P450 2D6 = Cytochrome P450 2D6 (Homo sapiens, UniProt P10635);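 further: CYP2D6 member of a cytochrome P450 panel assay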
Cytochrome P450 3A4 = Cytochrome P450 3A4 (Homo sapiens, UniProt P08684);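 further: CYP3A4 tested as one member of a cytochrome P450 panel screen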
Cytochrome P450 2C9 = Cytochrome P450 2C9 (Homo sapiens, UniProt P11712)
[15] = inhibitors of intracellular T. cruzi replication, confirmation, NIH3T3 host cells, beta-gal luminescence (AID 2044); type: functional, cell-based;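 further: intracellular parasites grown in NIH/3T3 mouse fibroblasts as host cells; luminescent beta-galactosidase reporter signal from transgenic T. cruzi replicating inside host cells; inhibitors lower the luminescence signal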
[16] = cytotoxicity toward NIH3T3 fibroblasts, dose response, counter-screen, cell-based, ATP luminescence, mouse fibroblasts (AID 2010); type: functional;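 further: cells exposed to compound for about 90 hours before reading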
cells [17] = assay: cells
[18] = cytotoxicity in HPDE-C7 cells, cell-based, fluorescence, HTS (AID 430); type: functional; settings: Homo sapiens
[19] = cytotoxicity in KRAS-transformed pancreatic duct cells, primary screen, cell-based, fluorescence, HTS (AID 431); type: functional; settings: Homo sapiens;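 further: cell line used: HPDE-C7K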
[20] = biological target: Glyceraldehyde-3-phosphate dehydrogenase (Homo sapiens, UniProt P04406)
Glyceraldehyde-3-phosphate dehydrogenase, sequence (P04406 whole entry): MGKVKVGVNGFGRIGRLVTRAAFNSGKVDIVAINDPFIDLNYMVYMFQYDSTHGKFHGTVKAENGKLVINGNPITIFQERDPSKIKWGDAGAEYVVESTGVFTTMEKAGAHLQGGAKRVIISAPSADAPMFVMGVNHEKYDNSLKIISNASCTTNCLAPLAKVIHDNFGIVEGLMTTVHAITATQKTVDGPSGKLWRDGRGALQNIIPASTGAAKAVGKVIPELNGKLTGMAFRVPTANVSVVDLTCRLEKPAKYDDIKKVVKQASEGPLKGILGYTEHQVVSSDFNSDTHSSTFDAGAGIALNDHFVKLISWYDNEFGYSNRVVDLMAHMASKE

Nucleotide-binding oligomerization domain-containing protein 2, sequence (Q9HC29 whole entry, the tested form may be a part): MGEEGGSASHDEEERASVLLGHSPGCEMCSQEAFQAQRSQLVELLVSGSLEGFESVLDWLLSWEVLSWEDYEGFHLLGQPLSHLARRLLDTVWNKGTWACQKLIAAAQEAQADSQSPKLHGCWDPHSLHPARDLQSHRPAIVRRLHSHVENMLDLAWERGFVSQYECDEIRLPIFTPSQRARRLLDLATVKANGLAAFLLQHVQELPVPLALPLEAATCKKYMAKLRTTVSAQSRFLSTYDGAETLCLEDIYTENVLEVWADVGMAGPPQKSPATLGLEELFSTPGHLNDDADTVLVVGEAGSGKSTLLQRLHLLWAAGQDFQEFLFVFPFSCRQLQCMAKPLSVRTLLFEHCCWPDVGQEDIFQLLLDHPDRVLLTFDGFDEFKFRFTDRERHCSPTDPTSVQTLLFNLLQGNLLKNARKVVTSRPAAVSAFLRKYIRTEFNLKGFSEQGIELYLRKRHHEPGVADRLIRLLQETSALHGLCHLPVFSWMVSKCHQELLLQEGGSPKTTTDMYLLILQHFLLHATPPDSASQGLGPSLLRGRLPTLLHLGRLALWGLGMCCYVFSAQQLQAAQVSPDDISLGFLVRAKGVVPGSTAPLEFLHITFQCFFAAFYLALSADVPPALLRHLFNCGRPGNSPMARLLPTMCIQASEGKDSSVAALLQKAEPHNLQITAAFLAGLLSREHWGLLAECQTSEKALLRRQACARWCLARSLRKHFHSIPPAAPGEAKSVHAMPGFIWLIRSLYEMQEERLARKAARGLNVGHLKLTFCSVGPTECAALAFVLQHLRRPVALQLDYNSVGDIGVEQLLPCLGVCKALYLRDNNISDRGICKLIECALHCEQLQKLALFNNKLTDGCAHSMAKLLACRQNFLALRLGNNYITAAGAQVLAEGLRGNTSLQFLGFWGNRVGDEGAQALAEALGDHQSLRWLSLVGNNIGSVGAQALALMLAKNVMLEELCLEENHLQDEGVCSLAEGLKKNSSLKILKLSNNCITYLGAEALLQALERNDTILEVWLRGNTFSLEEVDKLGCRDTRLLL
Cytochrome P450 2D6, sequence (P10635 whole entry): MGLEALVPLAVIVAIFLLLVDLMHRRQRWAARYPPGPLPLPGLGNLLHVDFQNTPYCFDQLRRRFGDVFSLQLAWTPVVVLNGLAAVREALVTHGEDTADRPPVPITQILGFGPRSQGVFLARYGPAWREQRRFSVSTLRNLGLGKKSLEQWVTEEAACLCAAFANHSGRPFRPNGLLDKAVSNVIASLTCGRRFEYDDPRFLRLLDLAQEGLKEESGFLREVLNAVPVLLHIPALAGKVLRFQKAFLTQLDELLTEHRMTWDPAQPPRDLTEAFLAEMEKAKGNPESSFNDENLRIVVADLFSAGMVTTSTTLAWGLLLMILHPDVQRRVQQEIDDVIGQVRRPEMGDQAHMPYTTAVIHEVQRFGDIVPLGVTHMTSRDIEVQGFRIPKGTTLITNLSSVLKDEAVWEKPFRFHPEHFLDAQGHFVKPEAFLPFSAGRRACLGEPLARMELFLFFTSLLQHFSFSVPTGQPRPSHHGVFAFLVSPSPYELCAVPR
Cytochrome P450 3A4, sequence (P08684 whole entry): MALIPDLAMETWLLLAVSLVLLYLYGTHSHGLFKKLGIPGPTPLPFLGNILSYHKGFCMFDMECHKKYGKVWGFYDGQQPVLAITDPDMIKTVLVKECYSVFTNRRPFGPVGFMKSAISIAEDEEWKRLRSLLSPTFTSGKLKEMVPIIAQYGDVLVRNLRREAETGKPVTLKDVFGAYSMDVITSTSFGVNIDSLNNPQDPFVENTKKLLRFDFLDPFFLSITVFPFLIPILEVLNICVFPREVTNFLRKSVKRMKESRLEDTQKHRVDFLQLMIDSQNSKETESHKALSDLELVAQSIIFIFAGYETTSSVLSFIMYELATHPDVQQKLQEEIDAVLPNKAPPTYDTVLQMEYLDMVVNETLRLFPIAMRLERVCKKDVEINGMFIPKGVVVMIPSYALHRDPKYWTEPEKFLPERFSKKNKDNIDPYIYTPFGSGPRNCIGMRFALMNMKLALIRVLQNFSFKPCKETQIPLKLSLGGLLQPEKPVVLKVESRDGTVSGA
DNA dC->dU-editing enzyme APOBEC-3G, sequence (Q9HC16 whole entry, the tested form may be a part): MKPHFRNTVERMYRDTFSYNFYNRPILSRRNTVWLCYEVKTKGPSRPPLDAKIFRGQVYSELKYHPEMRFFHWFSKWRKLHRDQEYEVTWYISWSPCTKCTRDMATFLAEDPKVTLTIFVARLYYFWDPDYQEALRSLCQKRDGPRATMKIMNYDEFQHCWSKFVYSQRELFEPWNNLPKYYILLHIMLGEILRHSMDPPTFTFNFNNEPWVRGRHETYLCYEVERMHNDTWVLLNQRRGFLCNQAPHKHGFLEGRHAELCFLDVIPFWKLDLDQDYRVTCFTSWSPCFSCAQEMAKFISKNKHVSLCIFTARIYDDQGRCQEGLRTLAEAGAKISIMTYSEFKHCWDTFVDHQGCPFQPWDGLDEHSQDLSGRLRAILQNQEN
Cytochrome P450 2C9, sequence (P11712 whole entry): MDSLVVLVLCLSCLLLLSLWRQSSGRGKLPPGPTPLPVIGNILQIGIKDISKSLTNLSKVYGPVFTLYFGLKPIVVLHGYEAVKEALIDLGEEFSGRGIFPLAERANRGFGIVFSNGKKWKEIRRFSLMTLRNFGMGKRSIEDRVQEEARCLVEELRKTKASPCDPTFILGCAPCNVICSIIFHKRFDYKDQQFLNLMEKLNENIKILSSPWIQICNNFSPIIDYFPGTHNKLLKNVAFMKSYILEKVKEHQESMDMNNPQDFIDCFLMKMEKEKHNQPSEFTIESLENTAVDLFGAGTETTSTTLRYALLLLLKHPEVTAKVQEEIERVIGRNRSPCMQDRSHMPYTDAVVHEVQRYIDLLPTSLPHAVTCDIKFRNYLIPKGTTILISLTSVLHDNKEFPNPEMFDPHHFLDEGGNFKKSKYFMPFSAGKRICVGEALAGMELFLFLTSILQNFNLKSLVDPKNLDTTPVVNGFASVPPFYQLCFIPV

SMILES: O=C(CCl)N1c2ccccc2SCC1c1ccccc1 (centres undefined)
EC50 [1]: 7.57 µM (inconclusive)
EC50 (HEK293 [2]): 11.5 µM (active)
IC50 (HEK293 [3]): 5.49 µM (active)
EC50 [4]: > 38 µM (not active)
IC50 (HEK293 [5]): > 20 µM (inactive)
EC50 [6]: > 20 µM (inactive)
IC50 (HEK293 [7]): 8.37 µM (active)
IC50 (HEK293 [8]): > 20 µM (inactive)
AC50 [9]: 4.2 µM (active)

IC50 (Prothrombin): > 50 µM (not active)
SMILES: CCC(=O)Nc1cccc(C(=O)OCc2cccc([N+](=O)[O-])c2)c1

SMILES: O=C(Nc1cc(S(=O)(=O)Nc2ccc(Cl)cc2)ccc1O)c1ccc(S(=O)(=O)N2CCCCCC2)cc1
IC50 [10]: 73.7 µM (active)
IC50 [11]: 2.73 µM (active)

SMILES: COc1cc(C(=O)OCCc2cc3ccccc3c(=O)o2)cc(OC)c1OC
IC50 [12]: 69.5 µM (inactive)

SMILES: COc1ccc(C(=O)NC(=C(Cl)Cl)S(=O)(=O)c2ccc(C)cc2)cc1
EC50 (HEK293 [2]): 12.3 µM (active)
IC50 (HEK293 [3]): 8.07 µM (active)
IC50 (HEK293 [5]): > 20 µM (inactive)
EC50 [6]: > 20 µM (inactive)
IC50 (HEK293 [7]): 8.96 µM (active)
IC50 (HEK293 [8]): > 20 µM (inactive)

SMILES: CCOc1nc(NCCN2CCOCC2)nc(Nc2ccc(C)cc2)n1
EC50 (cells [13]): > 350 µM (not active)
EC50 (cells [14]): > 350 µM (not active)
IC50 (Prothrombin): > 50 µM (not active)
AC50 (Cytochrome P450 2D6): 11.2 µM (inconclusive)
AC50 (Cytochrome P450 3A4): 15.8 µM (inconclusive)
AC50 (Cytochrome P450 2C9): 11.2 µM (inconclusive)

SMILES: O=c1cc(CN2CCN(Cc3ccccc3)CC2)c2ccc(O)cc2o1
EC50 [15]: < 0.1 µM (active)
EC50 [16]: > 60 µM (not active)
EC50 (cells [17]): 0.038 µM (active)

SMILES: O=C(CCCN1C(=O)c2cccnc2C1=O)N1CC(=O)N(CCc2ccccc2)C(=O)C1
EC50 [18]: > 20 µM (not active)
EC50 [19]: > 20 µM (not active)

IC50 [20]: > 50 µM (inconclusive)
SMILES: Cc1cccc(N2C(=O)C(Cl)=C(N3CCN[C@H](C)C3)C2=O)c1

SMILES: CN1CCc2c(sc3c2c(=O)n(-c2ccccc2)c2nnc(SCc4ccccc4)n32)C1
EC50 [15]: < 0.1 µM (active)
EC50 [16]: > 60 µM (not active)
EC50 (cells [17]): 0.015 µM (active)
